Experimental data reported in patent publication US20100041892A1, “Therapeutic agent for diabetes” (priority 2005, published 2010).

| SMILES | melting point [°C] |
| --- | --- |
| CCCCOc1cc(CCS(=O)(=O)NC(=O)OCC(C)C)n(Cc2ccc(Cl)cc2Cl)n1 [Example 133, isobutyl ({2-[3-butoxy-1-(2,4-dichlorobenzyl)-1H-pyrazol-5-yl]ethyl}sulfonyl)carbamate] | 114 to 116 |
| CCCCOc1cc(CCS(=O)(=O)NC(=O)OCCOC)n(Cc2ccc(Cl)cc2Cl)n1 [Example 134, 2-methoxyethyl ({2-[3-butoxy-1-(2,4-dichlorobenzyl)-1H-pyrazol-5-yl]ethyl}sulfonyl)carbamate] | 82 to 86 |
| CCCCCOC(=O)NS(=O)(=O)CCc1cc(OCCCC)nn1Cc1ccc(Cl)cc1Cl [Example 135, pentyl ({2-[3-butoxy-1-(2,4-dichlorobenzyl)-1H-pyrazol-5-yl]ethyl}sulfonyl)carbamate] | 91 to 93 |
| CCCCOc1cc(CCS(=O)(=O)NC(=O)OCc2ccccc2)n(Cc2ccc(Cl)cc2Cl)n1 [Example 136, benzyl ({2-[3-butoxy-1-(2,4-dichlorobenzyl)-1H-pyrazol-5-yl]ethyl}sulfonyl)carbamate] | 99 to 101 |
| C=CCOC(=O)NS(=O)(=O)CCc1cc(OCCCC)nn1Cc1ccc(Cl)cc1Cl [Example 137, allyl ({2-[3-butoxy-1-(2,4-dichlorobenzyl)-1H-pyrazol-5-yl]ethyl}sulfonyl)carbamate] | 94 to 95 |
| CCCCOc1cc(CCS(=O)(=O)NC(=O)OCc2ccccc2)n(Cc2ccc(Cl)cc2Cl)n1 [Example 138, benzyl ({2-[3-butoxy-1-(2,4-dichlorobenzyl)-1H-pyrazol-5-yl]ethyl}sulfonyl)carbamate] | 92 to 95 |
| CCCCOc1cc(CCS(=O)(=O)NC(=O)OC(C)C)n(Cc2ccc(Cl)cc2Cl)n1 [Example 139, isopropyl ({2-[3-butoxy-1-(2,4-dichlorobenzyl)-1H-pyrazol-5-yl]ethyl}sulfonyl)carbamate] | 120 to 121 |
| CCCCOc1cc(CCS(=O)(=O)NC(=O)OCC(C)(C)C)n(Cc2ccc(Cl)cc2Cl)n1 [Example 140, 2,2-dimethylpropyl ({2-[3-butoxy-1-(2,4-dichlorobenzyl)-1H-pyrazol-5-yl]ethyl}sulfonyl)carbamate] | 116 to 118 |
| CC(C)CCS(=O)(=O)NC(=O)OCc1cc(OC(C)C)nn1Cc1ccc(Cl)cc1Cl [Example 141, [1-(2,4-dichlorobenzyl)-3-isopropoxy-1H-pyrazol-5-yl]methyl [(3-methylbutyl)sulfonyl]carbamate] | 104 to 107 |
| CCCCCS(=O)(=O)NC(=O)OCc1cc(OC(C)C)nn1Cc1ccc(Cl)cc1Cl [Example 142, [1-(2,4-dichlorobenzyl)-3-isopropoxy-1H-pyrazol-5-yl]methyl (pentylsulfonyl)carbamate] | 126 to 128 |
| CCCCCS(=O)(=O)NC(=O)CCCc1cc(OCCCC)nn1Cc1ccc(Cl)cc1Cl [Example 146, 4-[3-butoxy-1-(2,4-dichlorobenzyl)-1H-pyrazol-5-yl]-N-(pentylsulfonyl)butanamide] | 121 to 122 |
| CCCCCS(=O)(=O)NC(=O)CCCCc1cc(OCCCC)nn1Cc1ccc(Cl)cc1Cl [Example 147, 5-[3-butoxy-1-(2,4-dichlorobenzyl)-1H-pyrazol-5-yl]-N-(pentylsulfonyl)pentanamide] | 91 to 93 |
| CC(C)Oc1cc(CCC(=O)NS(C)(=O)=O)n(Cc2ccc(Cl)cc2Cl)n1 [Example 148, 3-[1-(2,4-dichlorobenzyl)-3-isopropoxy-1H-pyrazol-5-yl]-N-(methylsulfonyl)propanamide] | 104 to 105 |
| CCCCCS(=O)(=O)NC(=O)/C=C/c1cc(OCCOC)nn1Cc1ccc(C(F)(F)F)cc1Cl [Example 149, (2E)-3-[1-[2-chloro-4 (trifluoromethyl)benzyl]-3-(2-methoxyethoxy)-1H-pyrazol-5-yl]-N-(pentylsulfonyl)acrylamide] | 130.5 to 132.5 |
| CCCCOc1cc(/C=C/C(=O)NS(=O)(=O)CCC(C)C)n(Cc2ccc(C(F)(F)F)cc2Cl)n1 [Example 150, (2E)-3-{3-butoxy-1-[2-chloro-4-(trifluoromethyl)benzyl]-1H-pyrazol-5-yl}-N-[(3-methylbutyl)sulfonyl]acrylamide] | 89.5 to 90.5 |
| CC(C)CCS(=O)(=O)NC(=O)/C=C/c1cc(OC2CCOCC2)nn1Cc1ccc(C(F)(F)F)cc1Cl [Example 153, (2E)-3-[1-[2-chloro-4-(trifluoromethyl)benzyl]-3-(tetrahydro-2H-pyran-4-yloxy)-1H-pyrazol-5-yl]-N-[(3-methylbutyl)sulfonyl]acrylamide] | 149.5 to 152.5 |
| CCCCCS(=O)(=O)NC(=O)/C=C/c1cc(OC2CCOCC2)nn1Cc1ccc(C(F)(F)F)cc1Cl [Example 154, (2E)-3-[1-[2-chloro-4-(trifluoromethyl)benzyl]-3-(tetrahydro-2H-pyran-4-yloxy)-1H-pyrazol-5-yl]-N-(pentylsulfonyl)acrylamide] | 160.5 to 161 |
| CC(C)CCS(=O)(=O)NC(=O)CCc1cc(C2CC2)nn1Cc1ccc(C(F)(F)F)cc1Cl [Example 157, 3-{1-[2-chloro-4-(trifluoromethyl)benzyl]-3-cyclopropyl-1H-pyrazol-5-yl}-N-[(3-methylbutyl)sulfonyl]propanamide] | 160.5 to 162.5 |

Next, values leading:

| melting point [°C] | SMILES |
| --- | --- |
| 97.5 to 98.3 | CCCCCS(=O)(=O)NC(=O)/C=C/c1ccc(OCCOC)cc1OCC1CCCCC1 [Example 158, (2E)-3-[2-(cyclohexylmethoxy)-4-(2-methoxyethoxy)phenyl]-N-(pentylsulfonyl)acrylamide] |
| 81 to 82 | CCCCCS(=O)(=O)NC(=O)CCc1ccc(OCCOC)cc1OCC1CCCCC1 [Example 159, 3-[2-(cyclohexylmethoxy)-4-(2-methoxyethoxy)phenyl]-N-(pentylsulfonyl)propanamide] |
| 64.8 to 66.3 | CCCCCS(=O)(=O)NC(=O)/C=C/c1ccc(OCCOC)cc1OCC1CC1 [Example 160, (2E)-3-[2-(cyclopropylmethoxy)-4-(2-methoxyethoxy)phenyl]-N-(pentylsulfonyl)acrylamide] |
| 64.1 to 65.4 | CCCCCS(=O)(=O)NC(=O)CCc1ccc(OCCOC)cc1OC1CCCCC1 [Example 164, 3-[2-(cyclohexyloxy)-4-(2-methoxyethoxy)phenyl]-N-(pentylsulfonyl)propanamide] |
| 57.8 to 58.9 | CCCCCS(=O)(=O)NC(=O)CCc1ccc(OCCOC)cc1OCC1CCCO1 (centres unmarked) [Example 166, 3-[4-(2-methoxyethoxy)-2-(tetrahydrofuran-2-ylmethoxy)phenyl]-N-(pentylsulfonyl)propanamide] |
| 81.7 to 82.8 | CCCCCS(=O)(=O)NC(=O)CCc1ccc(OCCOC)cc1OCC1CC1 [Example 167, 3-[2-(cyclopropylmethoxy)-4-(2-methoxyethoxy)phenyl]-N-(pentylsulfonyl)propanamide] |
| 106.7 to 108.2 | CCCCCS(=O)(=O)NC(=O)CCc1ccc(OCCOC)cc1OCc1ccc(Cl)cc1Cl [Example 169, 3-[2-[(2,4-dichlorobenzyl)oxy]-4-(2-methoxyethoxy)phenyl]-N-(pentylsulfonyl)propanamide] |
| 92.2 to 93.6 | CCCCCS(=O)(=O)NC(=O)CCc1ccc(OCCOC)cc1Oc1ncc(Cl)cc1Cl [Example 171, 3-[2-[(3,5-dichloropyridin-2-yl)oxy]-4-(2-methoxyethoxy)phenyl]-N-(pentylsulfonyl)propanamide] |
| 164.5 to 165.2 | CCCCCS(=O)(=O)NC(=O)/C=C/c1ccc(OCCOC)cc1Oc1cc(C(F)(F)F)ccc1[N+](=O)[O-] [Example 174, (2E)-3-{4-(2-methoxyethoxy)-2-[2-nitro-5-(trifluoromethyl)phenoxy]phenyl}-N-(pentylsulfonyl)acrylamide] |
| 142.3 to 142.6 | CCCCCS(=O)(=O)NC(=O)/C=C/c1ccc(OCCOC)cc1Nc1ccc(C(F)(F)F)cc1 [Example 176, (2E)-3-(4-(2-methoxyethoxy)-2-{[4-(trifluoromethyl)phenyl]amino}phenyl)-N-(pentylsulfonyl)acrylamide] |
| 88.5 to 89.1 | CCCCCS(=O)(=O)NC(=O)/C=C/c1ccc(OCCOC)cc1Cc1ncc(Br)s1 [Example 178, (2E)-3-[2-[(5-bromo-1,3-thiazol-2-yl)methyl]-4-(2-methoxyethoxy)phenyl]-N-(pentylsulfonyl)acrylamide] |
| 173.5 to 174.8 | CCCCCS(=O)(=O)NC(=O)/C=C/c1ccc(OCCOC)cc1Nc1ccc(C(F)(F)F)cc1Cl [Example 184, (2E)-3-[2-{[2-chloro-4-(trifluoromethyl)phenyl]amino}-4-(2-methoxyethoxy)phenyl]-N-(pentylsulfonyl)acrylamide] |
| 148 to 150.3 | CCCCCS(=O)(=O)NC(=O)/C=C/c1ccc(OCCOC)cc1Oc1ncc([N+](=O)[O-])cc1C [Example 185, (2E)-3-{4-(2-methoxyethoxy)-2-[(3-methyl-5-nitropyridin-2-yl)oxy]phenyl}-N-(pentylsulfonyl)acrylamide] |
| 118 to 118.4 | CCCCCS(=O)(=O)NC(=O)/C(=C/c1ccc(OCCOC)cc1Oc1ncc(Cl)cc1Cl)CC [Example 188, (2E)-2-[2-[(3,5-dichloropyridin-2-yl)oxy]-4-(2-methoxyethoxy)benzylidene]-N-(pentylsulfonyl)butanamide] |
| 176.8 to 177.1 | CCCCCS(=O)(=O)NC(=O)/C=C/c1ccc(OCCOC)cc1NC(=O)c1ccc(Cl)cc1Cl [Example 189, 2,4-dichloro-N-(5-(2-methoxyethoxy)-2-{(1E)-3-oxo-3-[(pentylsulfonyl)amino]prop-1-en-1-yl}phenyl)benzamide] |
| 140 to 140.8 | CCCCCS(=O)(=O)NC(=O)/C=C/c1ccc(OCCOC)cc1NC(=O)c1ccc(F)cc1F [Example 191, 2,4-difluoro-N-(5-(2-methoxyethoxy)-2-{(1E)-3-oxo-3-[(pentylsulfonyl)-amino]prop-1-en-1-yl}phenyl)benzamide] |
| 149.5 to 150.2 | CCCCCS(=O)(=O)NC(=O)/C=C/c1ccc(OCCOC)cc1Oc1ncc(NC(=O)OC(C)(C)C)cc1C [Example 192, tert-butyl [6-(5-(2-methoxyethoxy)-2-{(1E)-3-oxo-3-[(pentylsulfonyl)amino]prop-1-en-1-yl}phenoxy)-5-methylpyridin-3-yl]carbamate] |
